Assay results taken from PubChem BioAssay (NCI).
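How tested: cells in 96-well plates exposed to compound for 48 hours at five concentrations. GI50 marks 50% less growth. TGI: concentration producing complete growth inhibition.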

How the values were obtained:
Experiment in all cases: growth of human tumour cells (NCI), 48 h
[1] = tested on: 786-0 renal
[2] = tested on: A498 renal
[3] = tested on: A549 NSCLC
[4] = tested on: ACHN renal
[5] = tested on: BT-549 breast
[6] = tested on: CAKI-1 renal
[7] = tested on: CCRF-CEM leukemia
[8] = tested on: COLO 205 colon
[9] = tested on: DU-145 prostate
[10] = tested on: EKVX NSCLC
[11] = tested on: HCC-2998 colon
[12] = tested on: HCT-116 colon
[13] = tested on: HCT-15 colon
[14] = tested on: HL-60(TB) leukemia
[15] = tested on: HOP-62 NSCLC
[16] = tested on: HS 578T breast
[17] = tested on: HT29 colon
[18] = tested on: IGROV1 ovarian
[19] = tested on: K-562 leukemia
[20] = tested on: KM12 colon
[21] = tested on: LOX IMVI melanoma
[22] = tested on: M14 melanoma
[23] = tested on: MALME-3M melanoma
[24] = tested on: MCF7 breast
[25] = tested on: MDA-MB-231 breast
[26] = tested on: MDA-MB-435
[27] = tested on: MOLT-4 leukemia
[28] = tested on: NCI-H226 lung
[29] = tested on: NCI-H23 lung
[30] = tested on: NCI-H460 lung
[31] = tested on: NCI-H522 lung
[32] = tested on: NCI/ADR-RES ovarian
[33] = tested on: OVCAR-3 ovarian
[34] = tested on: OVCAR-4 ovarian
[35] = tested on: OVCAR-5 ovarian
[36] = tested on: OVCAR-8 ovarian
[37] = tested on: PC-3 prostate
[38] = tested on: RXF 393 renal
[39] = tested on: SF-268 CNS
[40] = tested on: SF-295 CNS
[41] = tested on: SF-539 CNS
[42] = tested on: SK-MEL-2 melanoma
[43] = tested on: SK-MEL-28 melanoma
[44] = tested on: SK-MEL-5 melanoma
[45] = tested on: SK-OV-3 ovarian
[46] = tested on: SN12C renal
[47] = tested on: SNB-19 CNS
[48] = tested on: SNB-75 CNS
[49] = tested on: SR leukemia
[50] = tested on: SW-620 colon
[51] = tested on: T-47D breast
[52] = tested on: TK-10 renal
[53] = tested on: U251 CNS
[54] = tested on: UACC-257 melanoma
[55] = tested on: UACC-62 melanoma
[56] = tested on: UO-31 renal

NC(CCl)=NCC12CC3CC(CC(C3)C1)C2
GI50 [1]: 966 nM | TGI [1]: 13200 nM | GI50 [2]: 1370 nM | TGI [2]: 13400 nM | GI50 [3]: 792 nM | TGI [3]: 15700 nM | GI50 [4]: 567 nM | TGI [4]: 11600 nM | GI50 [5]: 2430 nM | TGI [5]: 14200 nM | GI50 [6]: 426 nM | TGI [6]: 2480 nM | GI50 [7]: 348 nM | TGI [7]: 3270 nM | GI50 [8]: 1150 nM | TGI [8]: 3190 nM | GI50 [9]: 608 nM | TGI [9]: 3750 nM | GI50 [10]: 2230 nM | TGI [10]: 21100 nM | GI50 [11]: 1650 nM | TGI [11]: 7840 nM | GI50 [12]: 410 nM | TGI [12]: 2560 nM | GI50 [13]: 807 nM | TGI [13]: 13700 nM | GI50 [14]: 1060 nM | TGI [14]: 3780 nM | GI50 [15]: 796 nM | TGI [15]: 11400 nM | GI50 [16]: 4470 nM | TGI [16]: 42100 nM | GI50 [17]: 458 nM | TGI [17]: 2930 nM | GI50 [18]: 525 nM | TGI [18]: 31700 nM | GI50 [19]: 500 nM | TGI [19]: 5210 nM | GI50 [20]: 960 nM | TGI [20]: 3470 nM | GI50 [21]: 805 nM | TGI [21]: 2670 nM | GI50 [22]: 1320 nM | TGI [22]: 4390 nM | GI50 [23]: 6320 nM | TGI [23]: 27300 nM | GI50 [24]: 557 nM | TGI [24]: 6900 nM | GI50 [25]: 1750 nM | TGI [25]: 11300 nM | GI50 [26]: 474 nM | TGI [26]: 7110 nM | GI50 [27]: 333 nM | TGI [27]: 1730 nM | GI50 [28]: 1430 nM | TGI [28]: 11300 nM | GI50 [29]: 678 nM | TGI [29]: 4170 nM | GI50 [30]: 440 nM | TGI [30]: 4600 nM | GI50 [31]: 391 nM | TGI [31]: 2190 nM | GI50 [32]: 625 nM | TGI [32]: 14400 nM | GI50 [33]: 687 nM | TGI [33]: 7230 nM | GI50 [34]: 1870 nM | TGI [34]: 17400 nM | GI50 [35]: 3730 nM | TGI [35]: 11100 nM | GI50 [36]: 877 nM | TGI [36]: 19400 nM | GI50 [37]: 2050 nM | TGI [37]: 13300 nM | GI50 [38]: 440 nM | TGI [38]: 5400 nM | GI50 [39]: 1900 nM | TGI [39]: 12100 nM | GI50 [40]: 2290 nM | TGI [40]: 16200 nM | GI50 [41]: 702 nM | TGI [41]: 11200 nM | GI50 [42]: 2060 nM | TGI [42]: 7460 nM | GI50 [43]: 1580 nM | TGI [43]: 15500 nM | GI50 [44]: 973 nM | TGI [44]: 3790 nM | GI50 [45]: 4100 nM | TGI [45]: 16700 nM | GI50 [46]: 1560 nM | TGI [46]: 15700 nM | GI50 [47]: 10000 nM | TGI [47]: 23000 nM | GI50 [48]: 2210 nM | TGI [48]: 15400 nM | GI50 [49]: 116 nM | TGI [49]: 706 nM | GI50 [50]: 338 nM | TGI [50]: 4370 nM | GI50 [51]: 1200 nM | TGI [51]: 20100 nM | GI50 [52]: 1310 nM | TGI [52]: 9140 nM | GI50 [53]: 1380 nM | TGI [53]: 12100 nM | GI50 [54]: 1750 nM | TGI [54]: 5270 nM | GI50 [55]: 918 nM | TGI [55]: 4080 nM | GI50 [56]: 740 nM | TGI [56]: 15800 nM
